Test results from patent publication US20140088144A1, “INHIBITING MICROBIAL INFECTIONS” (THE UNIVERSITY OF KANSAS, priority 2012, published 2014).

Experiments:
virB = assay: Shigella gene expression qRT-PCR, virB; format: cell-based, S. flexneri; details: for Average ΔΔCt / Ct / RQ (2^−ΔΔCt) / ΔΔCt^1 (normalized to gapA) / ΔΔCt^2 (normalized to rrsA): virB, example data
Protocol: Real-time quantitative reverse transcription PCR (qRT-PCR) was performed to test the effects of SE-1 on the expression of the VirF regulated genes virB, icsA, icsB and ipaB. The gapA and rrsA transcripts were used as internal controls. These are constitutively expressed Shigella genes commonly used to normalize mRNA levels. S. flexneri strain SME4331, which carries a null mutation in ipgD (ipgD), was grown at 30° C. overnight in TSB with ampicillin, diluted into the same medium to an OD600 of ˜0.1, and 1 ml aliquots further grown at 30° C. (DMSO only) or at 37° C. (SE-1 at 20 or 40 μM, or DMSO only, all 0.3% DMSO). Cells were grown to an OD600 of 1.0 (˜2.5 h) and RNA was isolated using an RNeasy MiniElute Cleanup Kit (Qiagen, Germantown, Md.), with DNA contamination eliminated using a Turbo DNase Kit (Ambion, Austin, Tex.). Complementary DNA (cDNA) was synthesized by random priming using a cDNA Reverse Transcription Kit (Applied Biosystems, Foster City, Calif.). Primers were tested for PCR specificity using genomic DNA template to ensure a single amplicon of the expected size for each primer pair, and validated using 5-fold dilutions of cDNA (2000 to 0.0256 ng) to ensure a linear plot of cycle threshold (Ct) versus cDNA concentration. Validated primer sets were used to test mRNA profiles in reactions that contained 10 ng of cDNA, 10 μl of SYBR green master mix (Applied Biosystems), specific primers (0.5 μM each) and water to a final volume of 20 μl, using a Step One Plus Real-Time PCR System (Applied Biosystems). The data was analyzed using the 2^−ΔΔCt method, and also by Applied Biosystems real-time analysis software. […] In brief, ΔΔCt values [ΔΔCt=(Ct,Target−Ct,Internal Control)SE-1−(Ct,Target−Ct,Internal Control)no SE-1] were separately obtained for each sample relative to two internal controls, gapA and rrsA. The ΔΔCt values relative to the two internal controls for each sample were averaged and then used to calculate the relative expression levels (2^−ΔΔCt). As a control, we also normalized each internal control to the other internal control. Control reactions used templates generated without reverse transcriptase to ensure low genomic DNA contamination. To ensure that products were not likely to be due to primer dimer artifacts, additional control samples were performed in which reaction mixtures contained primers alone (no template).

RhaS-GB1^201b = target: T1, RhaS-GB1^201b (Escherichia coli, UniProt P09377, L201R); assay: EMSA in vitro DNA binding by RhaS-GB1^201b; format: biochemical, E. coli
T1 construct: solubility-enhancement tag to the C-terminus of full-length RhaS L201R; GB1basic (basic variant of GB1 solubility-enhancement tag) (C); made in house; host or cells: E. coli Acella, pET21-derived plasmid
Text: All proteins for this study were expressed in E. coli. Untagged CRP was purified by Ni^2+-affinity chromatography as described. Lad protein was purified by ammonium sulfate precipitation and phosphocellulose column chromatography as described. RhaS-GB1^201b and GB1^b-RhaR were purified by Ni^2+-affinity chromatography. Briefly, plasmids derived from pET21 and expressing RhaS-GB1^201b and GB1^b-RhaR were transformed into competent cells of strains Acella™ (MoBiTec, Gottingen, Germany) or ArcticExpress(DE3) (Agilent Technologies, Santa Clara Calif.), respectively. The cells were grown in 1 liter TY plus ampicillin and rhamnose. Gentamycin was also added for GB1^b-RhaR. The cells were grown to OD600 of 0.5, transferred to a 15° C. shaker, 0.1 mM IPTG was added, and then incubated overnight. Cells were harvested by centrifugation and then resuspended in 30 mL of cold binding buffer (20 mM Tris, 500 mM NaCl, 5 mM imidazole, pH 7.9) plus L-rhamnose. […]
IRD700- and DY682-labeled oligos were from Eurofins MWG Operon. […] EMSA gels were imaged using an Odyssey infrared imager (LI-COR, Lincoln, Nebr.), and quantified using the Odyssey software, version 3.0.30. […] Inhibition values were calculated and graphs were drawn as for in vivo dose-response experiments.

T1 sequence (P09377 whole entry L201R): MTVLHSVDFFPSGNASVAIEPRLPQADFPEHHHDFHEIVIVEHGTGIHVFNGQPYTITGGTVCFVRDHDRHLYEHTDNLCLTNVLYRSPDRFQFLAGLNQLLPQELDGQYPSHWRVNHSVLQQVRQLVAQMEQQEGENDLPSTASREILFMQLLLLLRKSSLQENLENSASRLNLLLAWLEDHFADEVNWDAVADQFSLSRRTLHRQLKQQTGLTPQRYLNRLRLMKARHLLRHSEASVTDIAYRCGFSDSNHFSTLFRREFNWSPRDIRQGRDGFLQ

CCCCN1C=C(c2ccc3ccccc3n2)C(C[N+](=O)[O-])c2ccccc21 (stereo not shown) [Compound 1, 1-butyl-4-(nitromethyl)-3-quinolin-2-yl-4H-quinoline]
maximal inhibition of virB expression (virB; 40 μM SE-1, P<0.05): more than two fold
Average ΔΔCt (virB; SE-1 20 μM): 1.13
Ct (virB; SE-1 20 μM): 23.26
RQ (2^−ΔΔCt) (virB; SE-1 20 μM): 0.46
ΔΔCt^1 (normalized to gapA) (virB; SE-1 20 μM): 0.63
ΔΔCt^2 (normalized to rrsA) (virB; SE-1 20 μM): 1.63
Average ΔΔCt (virB; SE-1 40 μM): 1.47
Ct (virB; SE-1 40 μM): 23.18
RQ (2^−ΔΔCt) (virB; SE-1 40 μM): 0.36
ΔΔCt^1 (normalized to gapA) (virB; SE-1 40 μM): 1.12
ΔΔCt^2 (normalized to rrsA) (virB; SE-1 40 μM): 1.81
IC50 (RhaS-GB1^201b): ~70 µM
inhibition of DNA binding by RhaS-GB1^201b (RhaS-GB1^201b; EMSA, dose-dependent): fully inhibit DNA binding
